Measurements reported in US11173151B2, “Substituted triazole derivatives and uses thereof” (BAYER AKTIENGESELLSCHAFT, priority 2017, dated 2021).
Read-outs that look alike come from different tables or passages of the source.

How the values were obtained:
human V1a receptor = molecular target: T1, human V1a receptor (Homo sapiens, UniProt P37288); test: Cellular in vitro assay for determining vasopressin receptor activity, V1a receptor cell line (CHO, aequorin luminescence); type: cell-based; conditions: for IC50: CHO cell line transfected with human V1a receptor, [Arg]-vasopressin at EC50 concentration, read-out: IC50 hV1a; for ratio IC50 hV2/hV1a: selectivity ratio IC50 hV2 / IC50 hV1a
T1 construct: expressed in transfected cells; host or cells: CHO K1 (ATCC), also stably transfected with a modified aequorin
In short: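 IC50 from inhibition of [Arg]-vasopressin (EC50 concentration)-evoked aequorin luminescence in CHO K1 cells, with 10-min compound pretreatment.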

human V2 receptor = molecular target: T2, human V2 receptor (Homo sapiens, UniProt P30518); test: Cellular in vitro assay for determining vasopressin receptor activity, V2 receptor cell line (CHO, CRE-luciferase); type: cell-based; conditions: CHO cell line transfected with human V2 receptor, [Arg8]-vasopressin at EC50 concentration, read-out: IC50 hV2
T2 construct: expressed in transfected cells; host or cells: CHO K1 (ATCC) expressing firefly luciferase under a CRE-responsive promoter
T2 sequence (P30518 whole entry): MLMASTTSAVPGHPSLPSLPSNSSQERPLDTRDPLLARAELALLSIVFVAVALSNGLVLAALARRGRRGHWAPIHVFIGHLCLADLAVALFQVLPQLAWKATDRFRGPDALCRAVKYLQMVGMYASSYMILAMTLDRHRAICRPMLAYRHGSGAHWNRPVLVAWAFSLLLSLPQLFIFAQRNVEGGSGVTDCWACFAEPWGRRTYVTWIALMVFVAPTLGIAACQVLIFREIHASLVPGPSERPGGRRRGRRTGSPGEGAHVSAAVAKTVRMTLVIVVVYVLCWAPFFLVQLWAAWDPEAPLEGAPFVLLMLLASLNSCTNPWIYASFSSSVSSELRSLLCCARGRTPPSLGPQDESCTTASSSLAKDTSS

T1 sequence (P37288 whole entry): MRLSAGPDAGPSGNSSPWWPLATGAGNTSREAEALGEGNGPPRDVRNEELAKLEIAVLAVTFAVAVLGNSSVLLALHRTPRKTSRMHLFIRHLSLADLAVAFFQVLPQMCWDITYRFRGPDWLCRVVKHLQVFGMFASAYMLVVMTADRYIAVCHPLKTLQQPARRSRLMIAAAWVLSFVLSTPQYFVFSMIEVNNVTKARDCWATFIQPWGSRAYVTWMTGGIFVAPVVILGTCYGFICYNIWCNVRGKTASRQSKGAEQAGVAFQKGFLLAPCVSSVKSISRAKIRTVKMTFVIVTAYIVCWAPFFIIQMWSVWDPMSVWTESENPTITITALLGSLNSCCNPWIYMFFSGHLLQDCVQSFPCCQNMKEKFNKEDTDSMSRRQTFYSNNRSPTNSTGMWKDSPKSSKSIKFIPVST

| Structure (SMILES) | IC50 (human V1a receptor) [nM] | ratio IC50 hV2/hV1a (human V1a receptor) | IC50 (human V2 receptor; 3 hours) [nM] | IC50 (human V2 receptor) [nM] |
| --- | --- | --- | --- | --- |
| O=C1NCCN1CCNc1ccncc1-n1cnc(Cn2nc(-c3ccc(Cl)cc3)n(C[C@H](O)C(F)(F)F)c2=O)n1 [Example 8, 5-(4-Chlorophenyl)-2-{[1-(4-{[2-(2-oxoimidazolidin-1-yl)ethyl]amino}pyridin-3-yl)-1H-1,2,4-triazol-3-yl]methyl}-4-[(2S)-3,3,3-trifluoro-2-hydroxypropyl]-2,4-dihydro-3H-1,2,4-triazol-3-one] | 585 | 5.1 | 3000 |  |
| O=C(c1ncccc1-n1cnc(Cn2nc(-c3ccc(Cl)cc3)n(C[C@H](O)C(F)(F)F)c2=O)n1)N1CCOCC1 [Example 446, 5-(4-Chlorophenyl)-2-({1-[2-(morpholin-4-ylcarbonyl)pyridin-3-yl]-1H-1,2,4-triazol-3-yl}methyl)-4-[(2S)-3,3,3-trifluoro-2-hydroxypropyl]-2,4-dihydro-3H-1,2,4-triazol-3-one] | 47 | 457.4 |  | 21500 |
| CC1CN(C(=O)c2ncccc2-n2cnc(Cn3nc(-c4ccc(Cl)cc4)n(C[C@@H](O)C(F)(F)F)c3=O)n2)CCO1 (stereo partly drawn) [Example 466, 5-(4-Chlorophenyl)-2-{[1-(2-{[2-methylmorpholin-4-yl]carbonyl}pyridin-3-yl)-1H-1,2,4-triazol-3-yl]methyl}-4-[(2R)-3,3,3-trifluoro-2-hydroxypropyl]-2,4-dihydro-3H-1,2,4-triazol-3-one] | 710 | 93.0 |  | 66000 |
| CC1(O)CCN(c2ccncc2-n2cnc(Cn3nc(-c4ccc(Cl)cc4)n(C[C@H](O)C(F)(F)F)c3=O)n2)C1 (mixture of isomers) [Example 13, 5-(4-Chlorophenyl)-2-[(1-{4-[3-hydroxy-3-methylpyrrolidin-1-yl]pyridin-3-yl}-1H-1,2,4-triazol-3-yl)methyl]-4-[(2S)-3,3,3-trifluoro-2-hydroxypropyl]-2,4-dihydro-3H-1,2,4-triazol-3-one] | 575 | 0.2 | 90.6 |  |
| CC(C)(N)CNc1ncccc1-n1cnc(Cn2nc(-c3ccc(Cl)cc3)n(C[C@H](O)C(F)(F)F)c2=O)n1 [Example 65, 2-[(1-{2-[(2-Amino-2-methylpropyl)amino]pyridin-3-yl}-1H-1,2,4-triazol-3-yl)methyl]-5-(4-chlorophenyl)-4-[(2S)-3,3,3-trifluoro-2-hydroxypropyl]-2,4-dihydro-3H-1,2,4-triazol-3-one] | 190 | 2.0 | 380 |  |
| NC(CNC(=O)c1cccc(Cl)c1-n1cnc(Cn2nc(-c3ccc(Cl)cc3)n(C[C@H](O)C(F)(F)F)c2=O)n1)C(F)(F)F (mixture of isomers) [Example 390, N-[2-Amino-3,3,3-trifluoropropyl]-3-chloro-2-[3-({3-(4-chlorophenyl)-5-oxo-4-[(2S)-3,3,3-trifluoro-2-hydroxypropyl]-4,5-dihydro-1H-1,2,4-triazol-1-yl}methyl)-1H-1,2,4-triazol-1-yl]benzamide] | 69 | 7.7 | 530 |  |
| Cc1cnn(CC(=O)Nc2ncccc2-n2cnc(Cn3nc(-c4ccc(Cl)cc4)n(C[C@H](O)C(F)(F)F)c3=O)n2)c1 [Example 92] | 240 | 7.3 | 1750 |  |
| O=c1n(Cc2ncn(-c3cnccc3NCCC(F)(F)F)n2)nc(-c2ccc(Cl)cc2)n1C[C@H](O)C(F)(F)F [Example 11, 5-(4-Chlorophenyl)-4-[(2S)-3,3,3-trifluoro-2-hydroxypropyl]-2-[(1-{4-[(3,3,3-trifluoropropyl)amino]pyridin-3-yl}-1H-1,2,4-triazol-3-yl)methyl]-2,4-dihydro-3H-1,2,4-triazol-3-one] | 958 | 0.4 | 410 |  |

Compounds with a lower IC50 (human V1a receptor), results first:

| IC50 (human V1a receptor) [nM] | ratio IC50 hV2/hV1a (human V1a receptor) | IC50 (human V2 receptor; 3 hours) [nM] | IC50 (human V2 receptor) [nM] | Structure (SMILES) |
| --- | --- | --- | --- | --- |
| 37.5 | 8.4 |  | 315 | O=C(NC1CC(F)(F)C1)c1cccc(C(F)(F)F)c1-n1cnc(Cn2nc(-c3ccc(Cl)cc3)n(C[C@H](O)C(F)(F)F)c2=O)n1 [Example 417, 2-[3-({3-(4-Chlorophenyl)-5-oxo-4-[(2S)-3,3,3-trifluoro-2-hydroxypropyl]-4,5-dihydro-1H-1,2,4-triazol-1-yl}methyl)-1H-1,2,4-triazol-1-yl]-N-(3,3-difluorocyclobutyl)-3-(trifluoromethyl)benzamide] |
| 29.5 | 67.8 |  | 2000 | COC[C@@H]1CCCN1C(=O)c1cccnc1-n1cnc(Cn2nc(-c3ccc(Cl)cc3)n(C[C@H](O)C(F)(F)F)c2=O)n1 [Example 502, 5-(4-Chlorophenyl)-2-{[1-(3-{[(2S)-2-(methoxymethyl)pyrrolidin-1-yl]carbonyl}pyridin-2-yl)-1H-1,2,4-triazol-3-yl]methyl}-4-[(2S)-3,3,3-trifluoro-2-hydroxypropyl]-2,4-dihydro-3H-1,2,4-triazol-3-one] |
| 22 | 16.8 |  | 370 | O=C(NCCC(F)(F)F)c1cccc(C(F)(F)F)c1-n1cnc(Cn2nc(-c3ccc(Cl)cc3)n(C[C@H](O)C(F)(F)F)c2=O)n1 [Example 421, 2-[3-({3-(4-Chlorophenyl)-5-oxo-4-[(2S)-3,3,3-trifluoro-2-hydroxypropyl]-4,5-dihydro-1H-1,2,4-triazol-1-yl}methyl)-1H-1,2,4-triazol-1-yl]-3-(trifluoromethyl)-N-(3,3,3-trifluoropropyl)benzamide] |
| 15.5 | 71.3 | 1100 |  | COC[C@H]1CCCN1C(=O)c1ccccc1-n1cnc(Cn2nc(-c3ccc(Cl)cc3)n(C[C@H](O)C(F)(F)F)c2=O)n1 [Example 335, 5-(4-Chlorophenyl)-2-{[1-(2-{[(2R)-2-(methoxymethyl)pyrrolidin-1-yl]carbonyl}phenyl)-1H-1,2,4-triazol-3-yl]methyl}-4-[(2S)-3,3,3-trifluoro-2-hydroxypropyl]-2,4-dihydro-3H-1,2,4-triazol-3-one] |
| 12 | 14.2 | 170 |  | CC(NC(=O)c1ccccc1-n1cnc(Cn2nc(-c3ccc(Cl)cc3)n(C[C@H](O)C(F)(F)F)c2=O)n1)c1ccon1 (stereo partly drawn) [Example 216, 2-[3-({3-(4-Chlorophenyl)-5-oxo-4-[(2S)-3,3,3-trifluoro-2-hydroxypropyl]-4,5-dihydro-1H-1,2,4-triazol-1-yl}methyl)-1H-1,2,4-triazol-1-yl]-N-[1-(1,2-oxazol-3-yl)ethyl]benzamide] |
| 12 | 337.5 |  | 4050 | CN(CC1CC1)C(=O)c1ncccc1-n1cnc(Cn2nc(-c3ccc(Cl)cc3)n(C[C@H](O)C(F)(F)F)c2=O)n1 [Example 454, 3-[3-({3-(4-Chlorophenyl)-5-oxo-4-[(2S)-3,3,3-trifluoro-2-hydroxypropyl]-4,5-dihydro-1H-1,2,4-triazol-1-yl}methyl)-1H-1,2,4-triazol-1-yl]-N-(cyclopropylmethyl)-N-methylpyridine-2-carboxamide] |
| 6.95 | 417.3 | 2900 |  | N[C@@H]1CCCC[C@@H]1NC(=O)c1ccccc1-n1cnc(Cn2nc(-c3ccc(Cl)cc3)n(C[C@H](O)C(F)(F)F)c2=O)n1 [Example 234, N-[(1S,2R)-2-Aminocyclohexyl]-2-[3-({3-(4-chlorophenyl)-5-oxo-4-[(2S)-3,3,3-trifluoro-2-hydroxypropyl]-4,5-dihydro-1H-1,2,4-triazol-1-yl}methyl)-1H-1,2,4-triazol-1-yl]benzamide] |
| 6.45 | 362.4 | 2340 |  | O=C(Nc1ncccc1-n1cnc(Cn2nc(-c3ccc(Cl)cc3)n(C[C@H](O)C(F)(F)F)c2=O)n1)[C@@H]1C[C@@H]1F (racemic) [Example 76, N-{3-[3-({3-(4-Chlorophenyl)-5-oxo-4-[(2S)-3,3,3-trifluoro-2-hydroxypropyl]-4,5-dihydro-1H-1,2,4-triazol-1-yl}methyl)-1H-1,2,4-triazol-1-yl]pyridin-2-yl}-2-fluorocyclopropanecarboxamide] |
| 5.05 | 277.2 | 1400 |  | O=C(NCC(O)CO)c1ccccc1-n1cnc(Cn2nc(-c3ccc(Cl)cc3)n(C[C@H](O)C(F)(F)F)c2=O)n1 (mixture of isomers) [Example 297, 2-[3-({3-(4-Chlorophenyl)-5-oxo-4-[(2S)-3,3,3-trifluoro-2-hydroxypropyl]-4,5-dihydro-1H-1,2,4-triazol-1-yl}methyl)-1H-1,2,4-triazol-1-yl]-N-[2,3-dihydroxypropyl]benzamide] |
| 2.7 | 351.9 | 950 |  | CC1CCCN(C(=O)c2ccccc2-n2cnc(Cn3nc(-c4ccc(Cl)cc4)n(C[C@H](O)C(F)(F)F)c3=O)n2)C1 (mixture of isomers) [Example 351, 5-(4-Chlorophenyl)-2-{[1-(2-{[3-methylpiperidin-1-yl]carbonyl}phenyl)-1H-1,2,4-triazol-3-yl]methyl}-4-[(2S)-3,3,3-trifluoro-2-hydroxypropyl]-2,4-dihydro-3H-1,2,4-triazol-3-one] |
| 0.93 | 5.0 | 4.7 |  | CC(C)(C)NC(=O)c1ccccc1-n1cnc(Cn2nc(-c3ccc(Cl)cc3)n(C[C@H](O)C(F)(F)F)c2=O)n1 [Example 344, N-Tert-butyl-2-[3-({3-(4-chlorophenyl)-5-oxo-4-[(2S)-3,3,3-trifluoro-2-hydroxypropyl]-4,5-dihydro-1H-1,2,4-triazol-1-yl}methyl)-1H-1,2,4-triazol-1-yl]benzamide] |
